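Interpolation was linear, between the two tested concentrations surrounding the appropriate level; five concentrations were tested over 48 hours in 96-well plates. GI50 = concentration required for 50% inhibition of growth.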 The source made the active and inactive calls. Cut-off read from the data, not from the text of the source: active = GI50 up to about 1.1 µM and inactive = higher.
What was measured:
Experiment in all cases: inhibition of tumour cell growth, NCI panel, 48 h
786-0 = system: 786-0
A498 = system: A498
A549 = system: A549
ACHN = system: ACHN
BT-549 = system: BT-549
CAKI-1 = system: CAKI-1
CCRF-CEM = system: CCRF-CEM
COLO 205 = system: COLO 205
DU-145 = system: DU-145
EKVX = system: EKVX
HCC 2998 = system: HCC 2998
HCT-116 = system: HCT-116
HCT-15 = system: HCT-15
HL-60 = system: HL-60
HOP-62 = system: HOP-62
HOP-92 = system: HOP-92
HT-29 = system: HT-29
Hs-578T = system: Hs-578T
IGROV-1 = system: IGROV-1
K562 = system: K562
KM12 = system: KM12
LOX IMVI = system: LOX IMVI
M14 = system: M14
MCF7 = system: MCF7
MDA-MB-231 = system: MDA-MB-231
MDA-MB-435 = system: MDA-MB-435
MDA-N = system: MDA-N
MOLT-4 = system: MOLT-4
Malme-3M = system: Malme-3M
NCI-H226 = system: NCI-H226
NCI-H23 = system: NCI-H23
NCI-H460 = system: NCI-H460
NCI-H522 = system: NCI-H522
NCI/ADR-RES = system: NCI/ADR-RES
OVCAR-4 = system: OVCAR-4
OVCAR-5 = system: OVCAR-5
OVCAR-8 = system: OVCAR-8
PC-3 = system: PC-3
RPMI-8226 = system: RPMI-8226
RXF 393 = system: RXF 393
SF-268 = system: SF-268
SF-295 = system: SF-295
SK-MEL-28 = system: SK-MEL-28
SK-MEL-2 = system: SK-MEL-2
SK-MEL-5 = system: SK-MEL-5
SK-OV-3 = system: SK-OV-3
SN12C = system: SN12C
SNB-19 = system: SNB-19
SR = system: SR
SW-620 = system: SW-620
T47D = system: T47D
TK-10 = system: TK-10
U-251 = system: U-251
UACC-257 = system: UACC-257
UACC-62 = system: UACC-62
UO-31 = system: UO-31
OVCAR-3 = system: OVCAR-3
SNB-75 = system: SNB-75
SF-539 = system: SF-539

Structure (SMILES): CC1=NN=C(N)N/C1=C\C(Sc1ccc(Cl)cc1)c1ccc([N+](=O)[O-])cc1 (configuration not stated)
- GI50 (786-0): 38.1 µM (inactive)
- GI50 (A498): > 100 µM (inactive)
- GI50 (A549): > 100 µM (inactive)
- GI50 (ACHN): 58.9 µM (inactive)
- GI50 (BT-549): 80 µM (inactive)
- GI50 (CAKI-1): > 100 µM (inactive)
- GI50 (CCRF-CEM): 27.5 µM (inactive)
- GI50 (COLO 205): > 100 µM (inactive)
- GI50 (DU-145): > 100 µM (inactive)
- GI50 (EKVX): 71.8 µM (inactive)
- GI50 (HCC 2998): > 100 µM (inactive)
- GI50 (HCT-116): 39.8 µM (inactive)
- GI50 (HCT-15): 94 µM
- GI50 (HL-60): 32.8 µM (inactive)
- GI50 (HOP-62): > 100 µM (inactive)
- GI50 (HOP-92): > 100 µM (inactive)
- GI50 (HT-29): > 100 µM (inactive)
- GI50 (Hs-578T): > 100 µM (inactive)
- GI50 (IGROV-1): 39.1 µM (inactive)
- GI50 (K562): 62.4 µM (inactive)
- GI50 (KM12): 94 µM (inactive)
- GI50 (LOX IMVI): 51.8 µM (inactive)
- GI50 (M14): 62.1 µM (inactive)
- GI50 (MCF7): 57.9 µM (inactive)
- GI50 (MDA-MB-231): > 100 µM (inactive)
- GI50 (MDA-MB-435): 83.9 µM (inactive)
- GI50 (MDA-N): 89.1 µM (inactive)
- GI50 (MOLT-4): 93.5 µM (inactive)
- GI50 (Malme-3M): > 100 µM (inactive)
- GI50 (NCI-H226): 20.8 µM (inactive)
- GI50 (NCI-H23): 80.9 µM (inactive)
- GI50 (NCI-H460): > 100 µM (inactive)
- GI50 (NCI-H522): 26.9 µM (inactive)
- GI50 (NCI/ADR-RES): > 100 µM (inactive)
- GI50 (OVCAR-4): > 100 µM (inactive)
- GI50 (OVCAR-5): > 100 µM (inactive)
- GI50 (OVCAR-8): > 100 µM (inactive)
- GI50 (PC-3): 66.7 µM (inactive)
- GI50 (RPMI-8226): 35.6 µM (inactive)
- GI50 (RXF 393): > 100 µM (inactive)
- GI50 (SF-268): 47.4 µM (inactive)
- GI50 (SF-295): > 100 µM (inactive)
- GI50 (SK-MEL-28): > 100 µM (inactive)
- GI50 (SK-MEL-2): > 100 µM (inactive)
- GI50 (SK-MEL-5): 74.5 µM (inactive)
- GI50 (SK-OV-3): > 100 µM (inactive)
- GI50 (SN12C): 81.1 µM (inactive)
- GI50 (SNB-19): > 100 µM (inactive)
- GI50 (SR): > 100 µM (inactive)
- GI50 (SW-620): 85.3 µM (inactive)
- GI50 (T47D): > 100 µM (inactive)
- GI50 (TK-10): > 100 µM (inactive)
- GI50 (U-251): 66.7 µM (inactive)
- GI50 (UACC-257): 91.4 µM (inactive)
- GI50 (UACC-62): 91.6 µM (inactive)
- GI50 (UO-31): 28.3 µM (inactive)

Structure (SMILES): C=C1C(=O)[C@]23C[C@H]1C[C@@H](O)[C@H]2[C@]1(COC3=O)[C@@H](OC(C)=O)CC[C@@](C)(COC(C)=O)[C@H]1C=O [LOXOTHYRIN A]
- GI50 (786-0): 36.4 µM (inactive)
- GI50 (A498): > 50 µM (inactive)
- GI50 (A549): > 50 µM (inactive)
- GI50 (ACHN): > 50 µM (inactive)
- GI50 (BT-549): 23.7 µM (inactive)
- GI50 (CAKI-1): 9.38 µM (inactive)
- GI50 (CCRF-CEM): 7.28 µM (inactive)
- GI50 (COLO 205): 8.53 µM (inactive)
- GI50 (DU-145): > 50 µM (inactive)
- GI50 (EKVX): > 50 µM (inactive)
- GI50 (HCC 2998): > 50 µM (inactive)
- GI50 (HCT-116): 37 µM (inactive)
- GI50 (HCT-15): > 50 µM
- GI50 (HL-60): 8.59 µM (inactive)
- GI50 (HOP-62): > 50 µM (inactive)
- GI50 (HOP-92): 10.2 µM (inactive)
- GI50 (HT-29): > 50 µM (inactive)
- GI50 (Hs-578T): 3.97 µM (inactive)
- GI50 (IGROV-1): > 50 µM (inactive)
- GI50 (K562): 6.97 µM (inactive)
- GI50 (KM12): > 50 µM (inactive)
- GI50 (LOX IMVI): > 50 µM (inactive)
- GI50 (MCF7): 17.8 µM (inactive)
- GI50 (MDA-MB-231): > 50 µM (inactive)
- GI50 (MDA-MB-435): > 50 µM (inactive)
- GI50 (MDA-N): > 50 µM (inactive)
- GI50 (MOLT-4): 9.04 µM (inactive)
- GI50 (Malme-3M): 11.4 µM (inactive)
- GI50 (NCI-H226): 9.57 µM (inactive)
- GI50 (NCI-H23): > 50 µM (inactive)
- GI50 (NCI-H460): > 50 µM (inactive)
- GI50 (NCI-H522): 7.28 µM (inactive)
- GI50 (NCI/ADR-RES): > 50 µM (inactive)
- GI50 (OVCAR-3): > 50 µM (inactive)
- GI50 (OVCAR-4): > 50 µM (inactive)
- GI50 (OVCAR-5): > 50 µM (inactive)
- GI50 (OVCAR-8): > 50 µM (inactive)
- GI50 (PC-3): > 50 µM (inactive)
- GI50 (RXF 393): 17.2 µM (inactive)
- GI50 (SF-268): 13.8 µM (inactive)
- GI50 (SF-295): > 50 µM (inactive)
- GI50 (SK-MEL-28): 19.5 µM (inactive)
- GI50 (SK-MEL-2): > 50 µM (inactive)
- GI50 (SK-MEL-5): > 50 µM (inactive)
- GI50 (SN12C): > 50 µM (inactive)
- GI50 (SNB-19): > 50 µM (inactive)
- GI50 (SNB-75): > 50 µM (inactive)
- GI50 (SR): 28.4 µM (inactive)
- GI50 (SW-620): 9.29 µM (inactive)
- GI50 (T47D): 11.7 µM (inactive)
- GI50 (TK-10): > 50 µM (inactive)
- GI50 (U-251): > 50 µM (inactive)
- GI50 (UACC-257): > 50 µM (inactive)
- GI50 (UACC-62): > 50 µM (inactive)
- GI50 (UO-31): > 50 µM (inactive)

Structure (SMILES): O=c1[nH]nc(-c2ccccc2)n1-c1ccncc1
- GI50 (786-0): > 100 µM (inactive)
- GI50 (A498): > 100 µM (inactive)
- GI50 (A549): > 100 µM (inactive)
- GI50 (ACHN): > 100 µM (inactive)
- GI50 (BT-549): > 100 µM (inactive)
- GI50 (CAKI-1): > 100 µM (inactive)
- GI50 (CCRF-CEM): > 100 µM (inactive)
- GI50 (COLO 205): > 100 µM (inactive)
- GI50 (DU-145): > 100 µM (inactive)
- GI50 (EKVX): > 100 µM (inactive)
- GI50 (HCC 2998): > 100 µM (inactive)
- GI50 (HCT-116): > 100 µM (inactive)
- GI50 (HCT-15): > 100 µM
- GI50 (HL-60): > 100 µM (inactive)
- GI50 (HOP-62): > 100 µM (inactive)
- GI50 (HOP-92): > 100 µM (inactive)
- GI50 (HT-29): > 100 µM (inactive)
- GI50 (Hs-578T): > 100 µM (inactive)
- GI50 (IGROV-1): > 100 µM (inactive)
- GI50 (K562): > 100 µM (inactive)
- GI50 (KM12): > 100 µM (inactive)
- GI50 (LOX IMVI): > 100 µM (inactive)
- GI50 (M14): > 100 µM (inactive)
- GI50 (MCF7): > 100 µM (inactive)
- GI50 (MDA-MB-231): > 100 µM (inactive)
- GI50 (MDA-MB-435): > 100 µM (inactive)
- GI50 (MDA-N): > 100 µM (inactive)
- GI50 (MOLT-4): > 100 µM (inactive)
- GI50 (Malme-3M): > 100 µM (inactive)
- GI50 (NCI-H226): > 100 µM (inactive)
- GI50 (NCI-H23): > 100 µM (inactive)
- GI50 (NCI-H460): > 100 µM (inactive)
- GI50 (NCI-H522): > 100 µM (inactive)
- GI50 (NCI/ADR-RES): > 100 µM (inactive)
- GI50 (OVCAR-3): > 100 µM (inactive)
- GI50 (OVCAR-4): > 100 µM (inactive)
- GI50 (OVCAR-5): > 100 µM (inactive)
- GI50 (OVCAR-8): > 100 µM (inactive)
- GI50 (PC-3): > 100 µM (inactive)
- GI50 (RPMI-8226): > 100 µM (inactive)
- GI50 (RXF 393): > 100 µM (inactive)
- GI50 (SF-268): > 100 µM (inactive)
- GI50 (SF-295): > 100 µM (inactive)
- GI50 (SF-539): > 100 µM (inactive)
- GI50 (SK-MEL-28): > 100 µM (inactive)
- GI50 (SK-MEL-5): > 100 µM (inactive)
- GI50 (SN12C): > 100 µM (inactive)
- GI50 (SNB-19): > 100 µM (inactive)
- GI50 (SNB-75): > 100 µM (inactive)
- GI50 (SR): > 100 µM (inactive)
- GI50 (SW-620): > 100 µM (inactive)
- GI50 (T47D): > 100 µM (inactive)
- GI50 (TK-10): > 100 µM (inactive)
- GI50 (U-251): > 100 µM (inactive)
- GI50 (UACC-257): > 100 µM (inactive)
- GI50 (UO-31): > 100 µM (inactive)
